The values below come from US20010044102A1, “ASSAYS AND REAGENTS FOR IDENTIFYING MODULATORS OF CDC25-MEDIATED MITOTIC ACTIVATION” (priority 1996, published 2001).

Series [1] has as its system cdc25. To be noted: cited from earlier work.
The subject of series [2] is Val 5 cells. Nature of the series: Myc-driven apoptosis and DNA replication in MycER cells treated with cdc25A antisense oligonucleotide, scored by TUNEL. Type of series: cell-based. The following applies: MycER induced by β-estradiol, 0.1% serum, shift from 39 to 32° C., FIG. 5B. As to the method: Finally, to investigate whether induction of the cdc25A gene is essential for Myc-driven apoptosis, we incubated Val 5 cells after MycER induction by β-estradiol with an antisense cdc25A oligonucleotide. Following this incubation, cells were shifted from 39 to 32° C., activating wild type p53 function, which normally results in apoptosis (Wagner et al. (1994) Genes Dev. 8:2817-2830). A scrambled oligonucleotide with the same nucleotide content was used in control experiments. We observed that both apoptosis and DNA replication was inhibited by the treatment with the antisense, but not with scrambled (control) oligonucleotides (FIG. 5B).
Human cdc25A, B and C under control of CMV promoter and pCMV CD20 has been described (Galaktionov et al. (1995) Science 269:1575-1577). […] Apoptotic figures were scored 24 hours later upon microscopic investigation of the cultures based on CD20 staining, indicative of successful transfection (more than 2%, usually 8-10%), and visible morphological changes indicative of cell death (membrane blebbing, chromatin condensation, etc.). […] 48 hours after shifting to 0.1% serum, MycER fusion protein was induced by the addition of β-estradiol and cell incubation continued for another 24 hours, at which point cells were photographed and apoptosis was scored by TUNEL.

Regarding `CN1C2CC3C1C1C(C4=C(C(=O)C(N)=CC4=O)C(CO)N1C2C#N)N1CCOC31` (stereo not drawn) [dnacin A1], the “cdc25 inhibitor (previously described in the literature)” value in series [1] is “cdc25 inhibitors”.
On to `CN1C2CC3C1C1C(C4=C(C(=O)C(N)=CC4=O)C(CO)N1C2O)N1CCOC31` (stereo not drawn) [dnacin B1], for which the “cdc25 inhibitor (previously described in the literature)” value in series [1] is listed as “cdc25 inhibitors”.
For the molecule “scrambled oligonucleotide: scrambled oligonucleotide (GGTACCTTGACCCGGGCTCG) with the same nucleotide content, used as control (chemistry not given here)”, the DNA replication entry in series [2] is recorded as “not”.
